The molecules below were run against T1, Aβ1-42 (Homo sapiens, UniProt P05067) (assay: Aβ disaggregation test of rifamycin-based derivatives by Thioflavin T analysis). Conditions: 50 μM compound, 50 μM Aβ1-42 aggregated 3 days, then 2 days of reaction.
T1 construct: human A81-42 monomers (UniProtKB-P05067, a.a. 672-713)
T1 sequence (P05067 672-713): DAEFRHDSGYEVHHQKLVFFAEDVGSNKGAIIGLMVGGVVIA
Assay type: biochemical
Description: The compound was then used diluted with 6% DMSO (in DW).
The Aβ solution was prepared by dissolving Aβ 1-42 monomers to the concentration of 10 mM in DMSO. Thereafter, the mixture was diluted to 100 μM by using DW and stored on ice.
On the other hand, Thioflavin-T was dissolved to the concentration of 5 mM in 50 mM glycine buffer (pH 8.5). Then, the resultant solution was diluted to the concentration of 50 μM by using 50 mM glycine buffer (pH 8.5) and stored in the dark while light was blocked.
The Aβ solution prepared in Example 3.1. was placed in 1.5 mL microcentrifuge tubes, each having 50 μM of the Aβ solution, and then reacted at 37° C. for 72 hours.
Each 1.5 mL microcentrifuge tube was treated with 50 μM rifapentine-based derivatives, followed by reaction at 37° C. for 48 hours.
(§1) 25 μL of the reaction solution in which the reaction was completed was added to each well of a 96-well fluorescence assay plate, and 75 μL of the Thioflavin-T solution prepared above was added to each well. After reacting for 5 minutes in the dark at room temperature, fluorescence values were measured at excitation 450 nm and emission 485 nm by using a multi-mode microplate reader.
The fluorescence value of the group (control) treated with Aβ alone and aggregated for 72 hours by treating only Aβ was considered as 100%, and the measured fluorescence values were expressed as a relative value thereto, and results thereof are shown in FIG. 7.
With `CO[C@H]1/C=C/O[C@@]2(C)Oc3c(C)c(O)c4c(O)c(c5c(nc6cc(C)ccn65)c4c3C2=O)NC(=O)/C(C)=C\C=C\[C@H](C)[C@H](O)[C@@H](C)[C@@H](O)[C@@H](C)[C@H](OC(C)=O)[C@@H]1C` (relative stereo) [rifaximin, [2S-(2R*,16Z,18E,20R*,21R*,22S*,23S*,24S*,25R*,26S*,27R*,22E)]-25-acetyloxy) -5,6,21,23-tetrahydroxy-27-methoxy-2,4,11,16,20,22,24,26-octamethyl-2,7-(epoxypentadeca [1,11,13] trienimino) benzofuro [4,5-e] pyrido [1,2-a] benzimidazole-1,15 (2H) -dione] the “Aβ disaggregation effect compared to the control” value was “significant disaggregation did not occur”.
`COC1C=COC2(C)Oc3c(C)c(O)c4c(O)c(c5c(c4c3C2=O)=NC2(CCN(CC(C)C)CC2)N=5)NC(=O)C(C)=CC=CC(C)C(O)C(C)C(O)C(C)C(OC(C)=O)C1C` [ripabutin, (S,12E,14S,15R,16S,17R,18R,19R,20S,21S,22E,24Z)-6,16,18,20-tetrahydroxy-1′-isobutyl-14-methoxy-7,9,15,17,19,21,25-heptamethyl-spiro[9,4-(epoxypentadeca[1,11,13]trienimino)-2H-furo[2″,3″:7,8]naphth[1,2-dimidazole-2,4″-piperidine]-5,10,26-(3H,9H)-trione-16-acetate] was tested, and the “Aβ disaggregation effect compared to the control” value was “about 50%”.
In the case of `CO[C@H]1/C=C/O[C@@]2(C)Oc3c(C)c(O)c4c(O)c(c(/C=N/N5CCN(C)CC5)c(O)c4c3C2=O)NC(=O)/C(C)=C\C=C\[C@H](C)[C@H](O)[C@@H](C)[C@@H](O)[C@@H](C)[C@H](OC(C)=O)[C@@H]1C` [rifampicin, 5,6,9,17,19,21-hexahydroxy-23-methoxy-2,4,12,16,18,20,22-heptamethyl-8-[N-(4-methyl-1-piperazinyl) formimidoyl]-2,7-(epoxypentadeca [1,11,13]trienimino)-naphtho [2,1-b] furan-1,11 (2H) -dione 21-acetate], the “Aβ disaggregation effect compared to the control” value is reported as “about 50%”.
In the case of “3-[[[4-(2-Methylpropyl)-1-piperazinyl]imino]methyl]rifamycin [rifamdin]”, the “Aβ disaggregation effect compared to the control” value is reported as “about 50%”.
With `CO[C@H]1/C=C/O[C@@]2(C)Oc3c(C)c(O)c4c(O)c(cc(O)c4c3C2=O)NC(=O)/C(C)=C\C=C\[C@H](C)[C@H](O)[C@@H](C)[C@@H](O)[C@@H](C)[C@H](OC(C)=O)[C@@H]1C` [rifamycin SV, 5,6,9,17,19,21-Hexahydroxy-23-methoxy-2,4,12,16,18,20,22-heptamethyl-2,7-(epoxypentadeca[1,11,13]trienimino)naphtho[2,1-b]furan-1,11(2H)-dione 21-acetate] the “Aβ disaggregation effect compared to the control” value was “about 50%”.
In the case of `CO[C@H]1/C=C/O[C@@]2(C)Oc3c(C)c(O)c4c(c3C2=O)C(=O)C=C(NC(=O)/C(C)=C\C=C\[C@H](C)[C@H](O)[C@@H](C)[C@@H](O)[C@@H](C)[C@H](OC(C)=O)[C@@H]1C)C4=O` [rifamycin S, 5,17,19,21-tetrahydroxy-23-methoxy-2,4,12,16,18,20,22-heptamethyl-2,7-(epoxypentadeca[1,11,13]trienimino)naphtho[2,1-b]furan-1,6,9,11(2H)-tetrone 21-acetate], the “Aβ disaggregation effect compared to the control” value is reported as 25%.
`CO[C@H]1/C=C/O[C@@]2(C)Oc3c(C)c(O)c4c(O)c(cc(OCC(=O)O)c4c3C2=O)NC(=O)/C(C)=C\C=C\[C@H](C)[C@H](O)[C@@H](C)[C@@H](O)[C@@H](C)[C@H](OC(C)=O)[C@@H]1C` [rifamycin B, {[(2S,12Z,14E,16S,17S,18R,19R,20R,21S,22R,23S,24E)-21-(acetyloxy)-5,6,17,19-tetrahydroxy-23-methoxy-2,4,12,16,18,20,22-heptamethyl-1,11-dioxo-1,2-dihydro-2,7-(epoxypentadeca[1,11,13]trienoimino)naphtho[2,1-b]furan-9-yl]oxy}acetic acid] was tested, and the “Aβ disaggregation effect compared to the control” value was “significant disaggregation did not occur”.

What follows are molecules tested against T1, Aβ1-42 (assay: Aβ aggregation inhibition test (Thioflavin T analysis)). Conditions: 20 μM compound, 50 μM Aβ, 3 days; relative to control (100%).
Assay type: biochemical
Description: Then, the compound was used diluted by using 6% DMSO (in DW) and used.
Triflupromazine hydrochloride (triflupromazine used in all the examples below is triflupromazine hydrochloride) was dissolved to a concentration of 5 mM in DMSO. The compound was then used diluted with 6% DMSO (in DW).
The Aβ solution was prepared by dissolving human A81-42 monomers (UniProtKB-P05067, a.a. 672-713) to 10 mM concentration in DMSO. Thereafter, the mixture was diluted to 100 uM by using DW and stored on ice.
On the other hand, Thioflavin-T (Sigma-Aldrich) was dissolved to the concentration of 5 mM in 50 mM glycine buffer (pH 8.5). Then, the resultant solution was diluted to the concentration of 50 μM by using 50 mM glycine buffer (pH 8.5) and stored in the dark while light was blocked.
as §1
The fluorescence value of the group (control) treated with Aβ alone and aggregated for 72 hours was considered as 100%, and the measured fluorescence values were expressed as a relative value thereto, and results thereof are shown in FIG. 1 and FIG. 2.
In addition, by performing the same test as described above for 20 μM of various compounds using 50 μM Aβ, the degree of Aβ aggregation was measured, and the result is expressed as a relative value for control (100%).
In the case of `CCN1CCCC1CNC(=O)c1cc(S(=O)(=O)CC)c(N)cc1OC` (stereo not drawn) [Amisulpride], the “Aggregation (%)” value is reported as 96.29%.
For `CC12CC3CC(C)(C1)CC(N)(C3)C2` [Mementine], the “Aggregation (%)” value was 95.84%.
In the case of `CN1CCN(CC/C=C2/c3ccccc3Sc3ccc(S(=O)(=O)N(C)C)cc32)CC1` [Thiothixene], the “Aggregation (%)” value is reported as 125.23%.
For `Cc1nc2n(c(=O)c1CCN1CCC(c3noc4cc(F)ccc34)CC1)CCCC2` [Risperidone], the “Aggregation (%)” value was 117.68%.
With `CN1CCN(C2=Nc3cc(Cl)ccc3Nc3ccccc32)CC1` [Clozapine] the “Aggregation (%)” value was 99.14%.

Reference: US20240139178A1, “METHOD FOR MANUFACTURING COMPOSITION FOR COMPOSITION FOR INCREASING COGNITIVE FUNCTION” (priority 2018, published 2024)
